The results in this text go back to patent US10072005B2, “4-azaindole derivatives” (EISAI R&D MANAGEMENT CO., LTD., priority 2013, dated 2018).

Chain of mAChR M1 (P11229 whole entry, looked up): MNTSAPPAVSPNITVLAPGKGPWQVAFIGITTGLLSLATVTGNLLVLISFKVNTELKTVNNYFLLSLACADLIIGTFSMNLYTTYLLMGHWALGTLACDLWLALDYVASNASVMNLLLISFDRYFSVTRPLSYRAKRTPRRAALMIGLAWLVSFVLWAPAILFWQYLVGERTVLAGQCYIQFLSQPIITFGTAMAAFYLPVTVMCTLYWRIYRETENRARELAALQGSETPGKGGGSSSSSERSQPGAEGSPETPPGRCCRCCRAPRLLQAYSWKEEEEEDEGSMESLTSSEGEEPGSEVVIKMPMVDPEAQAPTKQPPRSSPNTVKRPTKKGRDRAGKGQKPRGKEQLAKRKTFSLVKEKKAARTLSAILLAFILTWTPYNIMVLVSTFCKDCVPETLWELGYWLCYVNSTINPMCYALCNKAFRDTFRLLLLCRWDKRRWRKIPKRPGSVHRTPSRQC

This experiment concerns the target mAChR M1 (Homo sapiens, UniProt P11229). In words: In vitro cellular calcium flux assay, positive allosteric modulation of mAChR M1. To be noted: BHK cells expressing mAChR M1; EC20 carbachol; Examples 76-80 and 82-89 slightly modified procedure. The format is cell-based. On the procedure:
Baby hamster kidney cells stably expressing human or rat mAChR M1 to M5 were utilised for primary and selectivity profiling activities. mAChR M2 and M4 cell lines also stably expressed the chimeric Gαqi5 G-protein.
Human mAChR M1, M3, M5 and rat M1 cells were grown in low glucose Dulbecco's Modified Eagle's Medium (DMEM) medium plus heat inactivated 10% fetal bovine serum (HI FBS) and 500 μg/ml hygromycin B^1. Human mAChR M2 and M4 cells were maintained as above with^2 the addition of 500 μg/ml G418 to the media. Cells were maintained in culture at 37° C./5% CO2 and passaged twice weekly by treatment with 0.05% Trypsin/EDTA detachment solution, centrifugation (200 g, 5 min) and re-suspension in fresh media. Following cell expansion, cells were cryopreserved at −80° C. by treatment with 0.05% Trypsin/EDTA detachment solution, centrifugation (200 g, 5 min) and re-suspension of the pellet in freezing media (90% HI FBS/10% DMSO^3) at 15E6 cells/ml^4.
Prior to assaying, cells were prepared by thawing at 37° C. in a water bath, centrifugation (200 g, 5 min) and re-suspension of the pellet in fresh media. 15000 cells per well were seeded in black, clear bottomed 384-well Greiner Bio-One plates in plating medium (DMEM/10% HI FBS) and incubated overnight at 37 C/5% CO2.
On the day of the assay, media was removed from each well and replaced with 50 μl^5 assay buffer (HBSS with 20 mM HEPES and 2.5 mM Probenecid) containing the calcium indicator, Calcium 4 (Molecular Devices). Cells were then incubated at 37° C./5% CO2 for 30 min and at room temperature.
Compound preparation was carried out by generation of 11-point, 1 in 3 serial dilution concentration response curves in 100% DMSO. Compound was then diluted 1 in 65^6 with assay buffer (HBSS with 20 mM HEPES and 2.5 mM Probenecid) prior to the addition of 10 ul^7 to the cells using a Tetra fluorometric imaging plate reader (Molecular Devices)^8. Compound driven increases in intracellular calcium flux was measured as an increase in fluorescence (494Ex, 516Em)^9.
Positive allosteric modulator pEC50 values and antagonist pIC50 values for each compound were then determined. […] The points of modification and the alternate reagents, concentrations or equipment employed in these examples were: ^1200 μg/ml hygromycin B; ^2G418 not added; ^3CELLBANKER 1; ^410E6; ^5 40 μl; ^6 1 in 99; ^7 20 μl; ^8FDSS6000 (Hamamatsu Photonics); ^9(480Ex, 540Em); ^10Spotfire (TIBCO).
In general terms: Calcium flux is commonly read through the fluorescence of an indicator in the cells.
As to `COc1cc(Cn2cc(C(=O)N[C@H]3CCCC[C@@H]3O)c3nccc(C)c32)ccn1` [Example 71, N-((1S,2S)-2-Hydroxycyclohexyl)-1-((2-methoxypyridin-4-yl)methyl)-7-methyl-1H-pyrrolo[3,2-b]pyridine-3-carboxamide], the “pEC50 for positive allosteric modulation” value is on record as 7.9.

For the compound `Cn1cc(Cn2cc(C(=O)N[C@H]3CCCC[C@@H]3O)c3nccc(Cl)c32)cn1` [Example 72, 7-Chloro-N-((1S,2S)-2-hydroxycyclohexyl)-1-((1-methyl-1H-pyrazol-4-yl)methyl)-1H-pyrrolo[3,2-b]pyridine-3-carboxamide], the “pEC50 for positive allosteric modulation” value is reported as 7.8. In the case of `Cc1ccnc2c(C(=O)N[C@H]3CCCC[C@@H]3O)cn(Cc3cnn(C)c3)c12` [Example 73, N-((1S,2S)-2-Hydroxycyclohexyl)-7-methyl-1-((1-methyl-1H-pyrazol-4-yl)methyl)-1H-pyrrolo[3,2-b]pyridine-3-carboxamide] it was 7.9; in that of `Cc1csc(Cn2cc(C(=O)N[C@H]3CCCC[C@@H]3O)c3nccc(Cl)c32)n1` [Example 74, 7-Chloro-N-((1S,2S)-2-hydroxycyclohexyl)-1-((4-methylthiazol-2-yl)methyl)-1H-pyrrolo[3,2-b]pyridine-3-carboxamide], 6.7; in that of `Cc1cnc(Cn2cc(C(=O)N[C@H]3CCCC[C@@H]3O)c3nccc(Cl)c32)s1` [Example 75, 7-Chloro-N-((1S,2S)-2-hydroxycyclohexyl)-1-((5-methylthiazol-2-yl)methyl)-1H-pyrrolo[3,2-b]pyridine-3-carboxamide], 6.6. In the case of `Cc1cc(Cn2cc(C(=O)N[C@H]3CCCC[C@@H]3O)c3ncccc32)ccn1` [Example 76, N-((1S,2S)-2-Hydroxycyclohexyl)-1-((2-methylpyridin-4-yl)methyl)-1H-pyrrolo[3,2-b]pyridine-3-carboxamide] it was 6.4. Turning to `O=C(N[C@H]1CCCC[C@@H]1O)c1cn(Cc2ccncc2)c2cccnc12` [Example 77, N-((1S,2S)-2-Hydroxycyclohexyl)-1-(pyridin-4-ylmethyl)-1H-pyrrolo[3,2-b]pyridine-3-carboxamide], the “pEC50 for positive allosteric modulation” value worked out at 6.3.

With `Cc1cc(Cn2cc(C(=O)N[C@H]3CCCC[C@@H]3O)c3nccc(Cl)c32)ccn1` [Example 78, 7-Chloro-N-((1S,2S)-2-hydroxycyclohexyl)-1-((2-methylpyridin-4-yl)methyl)-1H-pyrrolo[3,2-b]pyridine-3-carboxamide], the “pEC50 for positive allosteric modulation” value is 7.8. In the case of `O=C(N[C@H]1CCCC[C@@H]1O)c1cn(Cc2ccncc2)c2c(Cl)ccnc12` [Example 79, 7-Chloro-N-((1S,2S)-2-hydroxycyclohexyl)-1-(pyridin-4-ylmethyl)-1H-pyrrolo[3,2-b]pyridine-3-carboxamide] it was 7.4; in that of `Cc1ccnc(Cn2cc(C(=O)N[C@H]3CCCC[C@@H]3O)c3nccc(Cl)c32)c1` [Example 80, 7-Chloro-N-((1S,2S)-2-hydroxycyclohexyl)-1-((4-methylpyridin-2-yl)methyl)-1H-pyrrolo[3,2-b]pyridine-3-carboxamide], 7.1; in that of `Cc1ccnc2c(C(=O)N[C@H]3CCCC[C@@H]3O)cn(Cc3ccc(Cl)cn3)c12` [Example 81, 1-((5-Chloropyridin-2-yl)methyl)-N-((1S,2S)-2-hydroxycyclohexyl)-7-methyl-1H-pyrrolo[3,2-b]pyridine-3-carboxamide], 7.2. With `O=C(N[C@H]1CCOC[C@@H]1O)c1cn(Cc2ccc(F)cc2)c2c(Cl)ccnc12` [Example 88, 7-Chloro-1-(4-fluorobenzyl)-N-((3R,4S)-3-hydroxytetrahydro-2H-pyran-4-yl)-1H-pyrrolo[3,2-b]pyridine-3-carboxamide], the “pEC50 for positive allosteric modulation” value amounted to 6.4.
